# Assays:
# [1] = Body weight by treatment group; assay type: in vivo, human
# From the text: Treatment with crystalline Form I of aticaprant, crystalline Form II of aticaprant, crystalline Form III of aticaprant, or amorphous aticaprant as described herein has several advantages over the treatments in the art. […] As used herein, the term “weight gain” refers to an increase in the weight of patient, relative to the weight of the patient before taking crystalline Form I of aticaprant, crystalline Form II of aticaprant, crystalline Form III of aticaprant, or amorphous aticaprant or the weight of the patient that is assessed at the time of the initial administration of the crystalline Form I of aticaprant, crystalline Form II of aticaprant, crystalline Form III of aticaprant, or amorphous aticaprant. In certain embodiments, the patient may actually see a decrease in overall weight, relative to the weight of the patient before taking crystalline Form I of aticaprant, crystalline Form II of aticaprant, crystalline Form III of aticaprant, or amorphous aticaprant.
# At the lead-in baseline timepoint, the mean weight for subjects in the placebo group was 76.17 kg compared to 78.66 in the aticaprant group. After 6 weeks in the double-blind treatment phase, the mean weight in the placebo group was 75.75 kg compared to 78.57 kg in the aticaprant group. […] This is unexpected because other adjunctive treatments for MDD result in a mean weight increase. See, Thase M, et al. J Clin Psych. 2015: 76 (9), 1224-1231; Thase, J Clin Psych. 2015, 76 (9): 1232-1240; El Khalili, Int J Neuropsychopharmacol. 2010, 13, 917-932; Marcus, J. Clin. Psychopharmacol. […] Nashville, Tenn, ACNP, 2008; Earley, American College of Neuropsychopharmacology, 2007, Annual Meeting Abstracts (Boca Raton, Fla, Dec. 9-13, 2007). Nashville, TN, ACNP, 2007). See, Table 65.
# subjects with MDD [2] = experiment: HAM-A6 total score (anxiety), same study; assay type: in vivo, human; conditions: Treatment Week 6
# From the text: The secondary objectives are: • i. […] To investigate the effect of aticaprant versus placebo on depression related anhedonia as assessed by the SHAPS. • iv. To investigate the effect of aticaprant on symptoms of depression using the Clinical Global Impression-Severity (CGI-S), the patient reported Symptoms of Major Depressive Disorder Scale (SMDDS) and the self-assessment of treatment experience (SATE). • V. To investigate the effect of aticaprant on symptoms of anxiety using the HAM-A and on core symptoms of anxiety using the HAM-A6 subscale. • vi. To assess the plasma PK of aticaprant in subjects with MDD and explore its relationship with efficacy and safety parameters.
# • (i) Depression: Montgomery-Åsberg Depression Rating Scale (MADRS), Clinical Global Impression-Severity (CGI-S), Symptoms of Major Depressive Disorder Scale (SMDDS), and Self-assessment of treatment experience (SATE) • (ii) Anhedonia: Snaith-Hamilton Pleasure Scale (SHAPS) • (iii) Anxiety: Structured Interview Guide for the Hamilton Anxiety scale (SIGH-A) and HAM-A6 • (iv) Effects on Cognition: The Cognitive and Physical Functioning Questionnaire (CPFQ) • (v) Safety assessments
# subjects with MDD [3] = experiment: MADRS total score, adjunctive aticaprant vs placebo in MDD (Example 8); conditions: for MADRS Total Score: Mean Change from Baseline (SD): aticaprant 10 mg adjunctive to SSRI/SNRI; for MADRS: LSMeans difference estimate, supplementary MMRM analysis (COVID-19 impact): data collected prior to 15 Mar. 2020
# subjects with MDD [4] = experiment: ASEX sexual functioning score; assay type: in vivo, human
# From the text: As used herein, the term “decrease in sexual functioning” refers to reducing or lessening of one or more components of the human sex drive, i.e., sexual functioning. In some embodiments, the sexual functioning comprises one or more of sexual drive, sexual arousal, vaginal lubrication, erection, orgasm achievement, or orgasm satisfaction. In other embodiments, the sexual functioning comprises sexual drive. In further embodiments, the sexual functioning comprises vaginal lubrication satisfaction. In further embodiments, the sexual functioning comprises orgasm achievement. In yet other embodiments, the sexual functioning comprises orgasm satisfaction. Desirably, the patient's sexual functioning is assessed at the time of initial administration of the crystalline Form I of aticaprant, crystalline Form II of aticaprant, crystalline Form III of aticaprant, or amorphous aticaprant. Thus, the patient's sexual functioning while taking crystalline Form I of aticaprant, crystalline Form II of aticaprant, crystalline Form III of aticaprant, or amorphous aticaprant can be compared to the patient's sexual functioning before administration of crystalline Form I of aticaprant, crystalline Form II of aticaprant, crystalline Form III of aticaprant, or amorphous aticaprant. Sexual functioning may be assessed by using standard scales and techniques such as the Arizona Sexual Experience Scale (ASEX). The ASEX is used to investigate whether crystalline Form I of aticaprant, crystalline Form II of aticaprant, crystalline Form III of aticaprant, or amorphous aticaprant has a further positive or negative effect on sexual function. The ASEX is 5 item rating scale administered to patients that quantifies sexual drive, sexual arousal, vaginal lubrication or penile erection, ability to reach orgasm and satisfaction. Scores range from 5 to 30, and two different versions of the scale are available (males and females).
# Patients had their sexual functioning measured using a standard, well accepted rating scale: ASEX. See, Table 68.
# [5] = eITT Analysis Set, High anhedonia (SHAPS Total Score at Treatment Baseline >=38), Treatment Week 6
# [6] = fITT Analysis Set, High anhedonia (SHAPS Total Score at Treatment Baseline >=38), Treatment Week 6
smiles,measurement,setting,value
"Cc1cc(C)cc(C2CCCN2Cc2ccc(Oc3ccc(C(N)=O)cc3F)cc2)c1 (stereo not shown) [aticaprant, 3-fluoro-4-4-2-(3,5-dimethylphenyl) pyrrolidin-1-yl-methylphenoxybenzamide]","Mean weight, mean (SE)","[1]; Lead-in Baseline, n = 85",78.66 (1.65) kg
same,"Mean weight, mean (SE)","[1]; Screening, n = 85",78.42 (1.65) kg
same,"Mean weight, mean (SE)","[1]; Withdrawal Baseline (after 6 weeks double-blind treatment), n = 85",78.57 (1.71) kg
same,Mean weight Relative % Change,"[1]; Withdrawal vs Lead-in, n = 85",−0.11%
same,mean weight,"[1]; after 6 weeks in the double-blind treatment phase, lead-in baseline 78.66",78.57 kg
same,weight over the 6-week double blind treatment period (in words),[1]; in vivo,remained relatively stable
same,Mean weight Absolute Change (Withdrawal-Lead-in),[1]; n = 85,-0.09 kg
same,"HAM-A6 score, aticaprant treated patients vs. placebo (in words)",subjects with MDD [2],greater improvement
same,Change from Treatment Baseline in HAM-A6 Total Score: Arithmetic Mean (SD),"subjects with MDD [2]; aticaprant 10 mg, 59 subjects analyzed",−2.73 ± 2.651 scores on a scale
same,MADRS Total Score Effect size,subjects with MDD [3]; [5],−0.38
same,MADRS Total Score Mean Change to Placebo (SD pooled),subjects with MDD [3]; [5],−3.4 (8.98)
same,MADRS Total Score Effect size,"subjects with MDD [3]; eITT Analysis Set, Low anhedonia (SHAPS Total Score at Treatment Baseline >=20 and <38), Treatment Week 6",−0.11
same,MADRS Total Score: Mean Change from Baseline (SD),"subjects with MDD [3]; eITT, Treatment Week 1",−3.3
same,MADRS Total Score: Mean Change from Baseline (SD),"subjects with MDD [3]; eITT, Treatment Week 3",−5.7
same,MADRS Total Score: Mean Change to Placebo (SD pooled),"subjects with MDD [3]; eITT, Treatment Week 4",−0.9 (7.00)
same,MADRS Total Score: Mean Change from Baseline (SD),"subjects with MDD [3]; eITT, Treatment Week 4",−7.3
same,MADRS Total Score: Mean Change from Baseline (SD),"subjects with MDD [3]; eITT, Treatment Week 5",−8.4
same,MADRS Total Score: Mean Change from Baseline (SD),"subjects with MDD [3]; eITT, Treatment Week 6",−10.2 (8.44)
same,"MADRS: LSMeans difference estimate, supplementary MMRM analysis (COVID-19 impact)",subjects with MDD [3]; eITT,−3.0
same,MADRS Total Score Effect size,subjects with MDD [3]; [6],−0.51
same,MADRS Total Score Mean Change to Placebo (SD pooled),subjects with MDD [3]; [6],−4.6 (9.03)
same,MADRS Total Score Effect size,"subjects with MDD [3]; fITT Analysis Set, Low anhedonia (SHAPS Total Score at Treatment Baseline >=20 and <38), Treatment Week 6",−0.29
same,MADRS Total Score Change from Baseline LSMean Difference (SE) Treatment-Placebo,"subjects with MDD [3]; fITT Analysis Set, Treatment Week 1, MMRM",−1.6 (1.03)
same,MADRS Total Score Change from Baseline LSMean Difference (SE) Treatment-Placebo,"subjects with MDD [3]; fITT Analysis Set, Treatment Week 3, MMRM",−1.9 (1.04)
same,MADRS Total Score Change from Baseline LSMean Difference (SE) Treatment-Placebo,"subjects with MDD [3]; fITT Analysis Set, Treatment Week 4, MMRM",−2.5 (1.04)
same,MADRS Total Score Change from Baseline LSMean Difference (SE) Treatment-Placebo,"subjects with MDD [3]; fITT Analysis Set, Treatment Week 5, MMRM",−2.4 (1.05)
same,MADRS Total Score Change from Baseline LSMean Difference (SE) Treatment-Placebo,"subjects with MDD [3]; fITT Analysis Set, Treatment Week 6, MMRM",−3.1 (1.05)
same,MADRS Total Score: Mean Change to Placebo (SD pooled),"subjects with MDD [3]; fITT, Treatment Week 4",−2.3 (7.02)
same,MADRS total score: mean change from treatment baseline (SD),"subjects with MDD [3]; fITT, Treatment Week 6",−9.7 (8.02)
same,MADRS Total Score: Least Squares Mean Difference aticaprant vs placebo,"subjects with MDD [3]; fITT, Treatment Week 6, MMRM",−3.1
same,"MADRS: LSMeans difference estimate, supplementary MMRM analysis (COVID-19 impact)",subjects with MDD [3]; fITT,−3.4
same,sexual functioning (in words),subjects with MDD [4]; ASEX,notable improvements
same,ASEX score,"subjects with MDD [4]; Baseline, n = 85",21.26
same,ASEX total score: mean change from treatment baseline (SD),"subjects with MDD [4]; to week 6, lower score indicates improvement",−1.5 (4.02) points

# Source: patent publication US12171743B2, “Forms of aticaprant” (Janssen Pharmaceuticals, Inc., priority 2022, dated 2024)
